The target of the test is T1, Vitronectin receptor αVβ3 (Homo sapiens, UniProt P05106+P06756).
T1 construct: expressed in transfected cells; host or cells: 512P5 cells (plasma membrane preparation)
Nature of the test: Vitronectin Receptor αVβ3 Binding Assay. Conditions: read-out: VnR (IC50μM).

T1 sequence (P06756 31-889 limits assumed): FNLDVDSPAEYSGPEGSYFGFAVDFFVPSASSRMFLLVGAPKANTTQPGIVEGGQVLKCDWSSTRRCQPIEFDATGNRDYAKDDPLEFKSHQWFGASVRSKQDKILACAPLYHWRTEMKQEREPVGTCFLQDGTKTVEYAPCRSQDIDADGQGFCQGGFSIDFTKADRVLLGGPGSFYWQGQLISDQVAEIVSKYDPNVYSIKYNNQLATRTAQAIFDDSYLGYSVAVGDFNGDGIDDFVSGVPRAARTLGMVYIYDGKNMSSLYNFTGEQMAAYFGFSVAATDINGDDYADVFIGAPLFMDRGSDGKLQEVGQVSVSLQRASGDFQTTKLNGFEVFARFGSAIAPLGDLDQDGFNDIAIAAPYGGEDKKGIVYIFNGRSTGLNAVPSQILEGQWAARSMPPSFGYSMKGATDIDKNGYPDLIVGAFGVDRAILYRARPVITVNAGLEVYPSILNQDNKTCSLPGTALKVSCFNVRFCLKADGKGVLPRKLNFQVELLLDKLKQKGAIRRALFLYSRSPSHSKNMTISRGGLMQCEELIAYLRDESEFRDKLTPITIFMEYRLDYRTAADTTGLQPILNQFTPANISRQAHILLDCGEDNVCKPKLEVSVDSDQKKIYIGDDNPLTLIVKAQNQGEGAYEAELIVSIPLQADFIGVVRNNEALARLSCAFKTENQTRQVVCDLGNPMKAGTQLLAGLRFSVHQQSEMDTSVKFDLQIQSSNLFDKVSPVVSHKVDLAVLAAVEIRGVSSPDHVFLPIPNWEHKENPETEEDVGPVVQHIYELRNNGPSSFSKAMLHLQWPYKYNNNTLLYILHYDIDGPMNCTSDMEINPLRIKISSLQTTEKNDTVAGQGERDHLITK
T1 sequence (P06756 891-1048 partner limits assumed): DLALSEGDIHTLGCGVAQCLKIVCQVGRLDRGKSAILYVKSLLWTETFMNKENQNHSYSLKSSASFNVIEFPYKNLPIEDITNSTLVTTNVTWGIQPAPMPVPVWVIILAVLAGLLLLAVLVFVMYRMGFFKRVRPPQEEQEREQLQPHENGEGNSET
T1 sequence (P05106 27-788): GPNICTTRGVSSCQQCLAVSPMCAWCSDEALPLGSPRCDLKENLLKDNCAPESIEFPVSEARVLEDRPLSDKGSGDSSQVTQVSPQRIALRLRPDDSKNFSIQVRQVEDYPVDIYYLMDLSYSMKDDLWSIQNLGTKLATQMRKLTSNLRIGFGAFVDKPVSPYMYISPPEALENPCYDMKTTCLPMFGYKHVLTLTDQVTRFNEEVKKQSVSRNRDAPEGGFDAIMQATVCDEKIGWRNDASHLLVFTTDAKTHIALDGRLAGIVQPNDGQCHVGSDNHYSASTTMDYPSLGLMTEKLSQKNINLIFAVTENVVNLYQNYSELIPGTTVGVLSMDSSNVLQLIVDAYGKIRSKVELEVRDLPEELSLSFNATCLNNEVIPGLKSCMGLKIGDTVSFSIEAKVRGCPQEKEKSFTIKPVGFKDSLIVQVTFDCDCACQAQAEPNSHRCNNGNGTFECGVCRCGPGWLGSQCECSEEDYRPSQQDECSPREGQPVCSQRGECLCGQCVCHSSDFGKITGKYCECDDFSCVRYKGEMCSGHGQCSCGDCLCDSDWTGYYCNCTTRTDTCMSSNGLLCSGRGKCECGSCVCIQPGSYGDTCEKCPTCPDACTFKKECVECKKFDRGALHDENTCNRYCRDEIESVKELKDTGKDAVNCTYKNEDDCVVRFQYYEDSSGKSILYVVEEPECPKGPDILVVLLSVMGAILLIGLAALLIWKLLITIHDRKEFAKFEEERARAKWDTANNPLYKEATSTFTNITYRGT

In the case of `CCCCCCCCNC(=O)N[C@@H](CNC(=O)c1ccc(OCCNC(=N)N)cc1O)C(=O)O` [Example 187, (2S)-3-{[4-(2-{[amino(imino)methyl]amino}ethoxy)-2-hydroxybenzoyl]amino}-2-{[(octylamino)carbonyl]amino}propanoic acid], the IC50 came to 19.5 µM. The same measure for `COc1ccc(NC(=O)N[C@@H](CNC(=O)c2ccc(OCCNC(=N)N)cc2O)C(=O)O)cc1` [Example 188]: 12.1 µM. Turning to `N=C(N)NCCOc1ccc(C(=O)NC[C@H](NC(=O)Nc2ccccc2)C(=O)O)c(O)c1` [Example 189, (2S)-3-{[4-(2-{[amino(imino)methyl]amino}ethoxy)-2-hydroxybenzoyl]amino}-2-[(anilinocarbonyl)amino]propanoic acid], the IC50 is 6.87 µM. With `CC(C)C(=O)N[C@@H](CNC(=O)c1ccc(OCCNC(=N)N)cc1O)C(=O)O` [Example 190, (2S)-3-{[4-(2-{[amino(imino)methyl]amino}ethoxy)-2-hydroxybenzoyl]amino}-2-(isobutyrylamino)propanoic acid], the IC50 is more than 1 µM. Take `CCCC(=O)N[C@@H](CNC(=O)c1ccc(OCCNC(=N)N)cc1O)C(=O)O` [Example 191, (2S)-3-{[4-(2-{[amino(imino)methyl]amino}ethoxy)-2-hydroxybenzoyl]amino}-2-(butyrylamino)propanoic acid]: the IC50 was more than 1 µM.

Take `CCCCCC(=O)N[C@@H](CNC(=O)c1ccc(OCCNC(=N)N)cc1O)C(=O)O` [Example 192, (2S)-3-{[4-(2-{[amino(imino)methyl]amino}ethoxy)-2-hydroxybenzoyl]amino}-2-(hexanoylamino)propanoic acid]: the IC50 is more than 1 µM. On to `CCCCC(=O)N[C@@H](CNC(=O)c1ccc(OCCNC(=N)N)cc1O)C(=O)O` [Example 193, (2S)-3-{[4-(2-{[amino(imino)methyl]amino}ethoxy)-2-hydroxybenzoyl]amino}-2-(pentanoylamino)propanoic acid], for which the IC50 was more than 1 µM. The same measure for `CC(C)(C)CC(=O)N[C@@H](CNC(=O)c1ccc(OCCNC(=N)N)cc1O)C(=O)O` [Example 194]: more than 1 µM. `CC1(C)C(C(=O)N[C@@H](CNC(=O)c2ccc(OCCNC(=N)N)cc2O)C(=O)O)C1(C)C` [Example 195, (2S)-3-{[4-(2-{[amino(imino)methyl]amino}ethoxy)-2-hydroxybenzoyl]amino}-2-{[(2,2,3,3-tetramethylcyclopropyl)carbonyl]amino}propanoic acid]: the IC50 was more than 1 µM. Consider `N=C(N)NCCOc1ccc(C(=O)NC[C@H](NC(=O)CC23CC4CC(CC(C4)C2)C3)C(=O)O)c(O)c1` [Example 196, (2S)-2-{[2-(1-adamantyl)acetyl]amino}-3-{[4-(2-{[amino(imino)methyl]amino}-ethoxy)-2-hydroxybenzoyl]amino}propanoic acid], for which the IC50 is 5.71 µM. The same measure for `C#CCCC(=O)N[C@@H](CNC(=O)c1ccc(OCCNC(=N)N)cc1O)C(=O)O` [Example 197, (2S)-3-{[4-(2-{[amino(imino)methyl]amino}ethoxy)-2-hydroxybenzoyl]amino}-2-(pent-4-ynoylamino)propanoic acid]: more than 1 µM; for `N=C(N)NCCOc1ccc(C(=O)NC[C@H](NC(=O)C2CCCCC2)C(=O)O)c(O)c1` [Example 198, (2S)-3-{[4-(2-{[amino(imino)methyl]amino}ethoxy)-2-hydroxybenzoyl]amino}-2-[(cyclohexylcarbonyl)amino]propanoic acid]: more than 1 µM; for `N=C(N)NCCOc1ccc(C(=O)NC[C@H](NC(=O)Cc2ccccc2)C(=O)O)c(O)c1` [Example 199, (2S)-3-{[4-(2-{[amino(imino)methyl]amino}ethoxy)-2-hydroxybenzoyl]amino}-2-[(2-phenylacetyl)amino]propanoic acid]: 14.7 µM. With `N=C(N)NCCOc1ccc(C(=O)NC[C@H](NC(=O)CCc2ccccc2)C(=O)O)c(O)c1` [Example 200, (2S)-3-{[4-(2-{[amino(imino)methyl]amino}ethoxy)-2-hydroxybenzoyl]amino}-2-[(3-phenylpropanoyl)amino]propanoic acid] the figure was more than 1 µM; with `N=C(N)NCCOc1ccc(C(=O)NC[C@H](NC(=O)CC2CCCCC2)C(=O)O)c(O)c1` [Example 201, (2S)-3-{[4-(2-{[amino(imino)methyl]amino}ethoxy)-2-hydroxybenzoyl]amino}-2-[(2-cyclohexylacetyl)amino]propanoic acid], 13.2 µM; with `N=C(N)NCCOc1ccc(C(=O)NC[C@H](NC(=O)/C=C/c2ccccc2)C(=O)O)c(O)c1` [Example 202, (2S)-3-{[4-(2-{[amino(imino)methyl]amino}ethoxy)-2-hydroxybenzoyl]amino}-2-{[(E)-3-phenylprop-2-enoyl]amino}propanoic acid], more than 1 µM. The same measure for `N=C(N)NCCOc1ccc(C(=O)NC[C@H](NC(=O)c2ccccc2Cl)C(=O)O)c(O)c1` [Example 203, (2S)-3-{[4-(2-{[amino(imino)methyl]amino}ethoxy)-2-hydroxybenzoyl]amino}-2-[(2-chlorobenzoyl)amino]propanoic acid]: 14.1 µM. For the compound `Cc1ccccc1C(=O)N[C@@H](CNC(=O)c1ccc(OCCNC(=N)N)cc1O)C(=O)O` [Example 204, (2S)-3-{[4-(2-{[amino(imino)methyl]amino}ethoxy)-2-hydroxybenzoyl]amino}-2-[(2-methylbenzoyl)amino]propanoic acid], the IC50 came out at 7.48 µM. On to `COc1ccccc1C(=O)N[C@@H](CNC(=O)c1ccc(OCCNC(=N)N)cc1O)C(=O)O` [Example 205, (2S)-3-{[4-(2-{[amino(imino)methyl]amino}ethoxy)-2-hydroxybenzoyl]amino}-2-[(2-methoxybenzoyl)amino]propanoic acid], for which the IC50 is more than 1 µM.

As to `N=C(N)NCCOc1ccc(C(=O)NC[C@H](NC(=O)c2ccc(Cl)cc2)C(=O)O)c(O)c1` [Example 206, (2S)-3-{[4-(2-{[amino(imino)methyl]amino}ethoxy)-2-hydroxybenzoyl]amino}-2-[(4-chlorobenzoyl)amino]propanoic acid], the IC50 was more than 1 µM. The same measure for `Cc1ccc(C(=O)N[C@@H](CNC(=O)c2ccc(OCCNC(=N)N)cc2O)C(=O)O)cc1` [Example 207, (2S)-3-{[4-(2-{[amino(imino)methyl]amino}ethoxy)-2-hydroxybenzoyl]amino}-2-[(4-methylbenzoyl)amino]propanoic acid]: more than 1 µM.

In the case of `COc1ccc(C(=O)N[C@@H](CNC(=O)c2ccc(OCCNC(=N)N)cc2O)C(=O)O)cc1` [Example 208, (2S)-3-{[4-(2-{[amino(imino)methyl]amino}ethoxy)-2-hydroxybenzoyl]amino-}-2-[(4-methoxybenzoyl)amino]propanoic acid], the IC50 is more than 1 µM. The same measure for `N=C(N)NCCOc1ccc(C(=O)NC[C@H](NC(=O)c2cccnc2)C(=O)O)c(O)c1` [Example 209, (2S)-3-{[4-(2-{[amino(imino)methyl]amino}ethoxy)-2-hydroxybenzoyl]amino}-2-[(pyridin-3-ylcarbonyl)amino]propanoic acid]: more than 1 µM.

Take `N=C(N)NCCOc1ccc(C(=O)NC[C@H](NC(=O)c2ccncc2)C(=O)O)c(O)c1` [Example 210, (2S)-3-{[4-(2-{[amino(imino)methyl]amino}ethoxy)-2-hydroxybenzoyl]amino}-2-(isonicotinoylamino)propanoic acid]: the IC50 was more than 1 µM. In the case of `Cc1cc(C(=O)N[C@@H](CNC(=O)c2ccc(OCCNC(=N)N)cc2O)C(=O)O)c(C)o1` [Example 211, (2S)-3-{[4-(2-{[amino(imino)methyl]amino}ethoxy)-2-hydroxybenzoyl]amino}-2-[(2,5-dimethyl-3-furoyl)amino]propanoic acid], the IC50 was more than 1 µM. As for `N=C(N)NCCOc1ccc(C(=O)NC[C@H](NC(=O)c2ccccc2Br)C(=O)O)c(O)c1` [Example 212, (2S)-3-{[4-(2-{[amino(imino)methyl]amino}ethoxy)-2-hydroxybenzoyl]amino-}-2-[(2-bromobenzoyl)amino]propanoic acid], the IC50 is 13.1 µM. With `N=C(N)NCCOc1ccc(C(=O)NC[C@H](NC(=O)c2ccc(Br)cc2)C(=O)O)c(O)c1` [Example 213, (2S)-3-{[4-(2-{[amino(imino)methyl]amino}ethoxy)-2-hydroxybenzoyl]amino}-2-[(4-bromobenzoyl)amino]propanoic acid] the figure was more than 1 µM; with `Cc1cccc(C(=O)N[C@@H](CNC(=O)c2ccc(OCCNC(=N)N)cc2O)C(=O)O)c1C` [Example 214, (2S)-3-{[4-(2-{[amino(imino)methyl]amino}ethoxy)-2-hydroxybenzoyl]amino}-2-[(2,3-dimethylbenzoyl)amino]propanoic acid], 2.31 µM.

For `N=C(N)NCCOc1ccc(C(=O)NC[C@H](NC(=O)c2cccc(Cl)c2)C(=O)O)c(O)c1` [Example 215, (2S)-3-{[4-(2-{[amino(imino)methyl]amino}ethoxy)-2-hydroxybenzoyl]amino}-2-[(3-chlorobenzoyl)amino]propanoic acid], the IC50 was more than 1 µM. The same measure for `CC(C)(C)COC(=O)N[C@@H](CNC(=O)c1ccc(OCCNC(=O)NCc2ccccc2)cc1O)C(=O)O` [Example 219, (2S)-3-{[4-(2-{[(benzylamino)carbonyl]amino}ethoxy)-2-hydroxy-benzoyl]amino}-2-{[(neopentyloxy)carbonyl]amino}propanoic acid]: 1.8 µM. The same measure for `O=C(NCCOc1ccc(C(=O)NC[C@H](NC(=O)OCc2ccccc2)C(=O)O)c(O)c1)NCc1ccccc1` [Example 220, (2S)-3-{[4-(2-{[(benzylamino)carbonyl]amino}ethoxy)-2-hydroxybenzoyl]amino}-2-{[(benzyloxy)carbonyl]amino}propanoic acid]: 8.8 µM; for `COC(=O)N[C@@H](CNC(=O)c1ccc(OCCNC(=O)NCc2ccccc2)cc1O)C(=O)O` [Example 221, (2S)-3-{[4-(2-{[(benzylamino)carbonyl]amino}ethoxy)-2-hydroxybenzoyl]amino}-2-[(methoxycarbonyl)amino]propanoic acid]: 22.8 µM.

The values above are taken from US20030186967A1, “Acylresorcinol derivatives are selective vitronectin receptor inhibitors” (American Home Products Corporation, priority 1998, published 2003).
